Measurements as given in ChEMBL document CHEMBL5034038, “Zanamivir-Cholesterol Conjugate: A Long-Acting Neuraminidase Inhibitor with Potent Efficacy against Drug-Resistant Influenza Viruses” (J Med Chem, 2021).
The source made the active and inactive calls. No cut-off for these calls is given here.

Experiments:
[1] = Inhibition of Influenza A virus (A/California/07/2009 (H1N1)) neuraminidase N1 H275Y mutant using MUNANA as substrate preincubated for 30 mins followed by substrate addition by fluorescence method
[2] = Inhibition of Influenza A virus (A/Moscow/10/99 (H3N2)) neuraminidase N2 E119V variant using MUNANA as substrate preincubated for 30 mins followed by substrate addition by fluorescence method
Influenza A virus [3] = experiment: Antiviral activity against Influenza A virus (A/California/07/2009 (H1NI)) harboring NA H275Y mutant infected in dog MDCK cells assessed as reduction in virus replication incubated for 72 hrs by CCK8 assay; assay type: functional, organism-based, A/California/07/2009(H1N1)
Influenza A virus [4] = experiment: Antiviral activity against Influenza A virus (A/Moscow/10/99 (H3N2)) harboring NA E119V mutant infected in dog MDCK cells assessed as reduction in virus replication incubated for 72 hrs by CCK8 assay; assay type: functional, organism-based
Influenza A virus [5] = experiment: Protection against Influenza A virus (A/California/07/2009 (H1NI)) harboring NA H275Y mutant infected in Balb/c mouse at 4.2 to 8.4 uM/kg, IV administered once daily for 7 days starting from 24 hrs prior to viral infection; assay type: functional; conditions: dose 4.2-8.4 µM/Kg
Influenza A virus [6] = experiment: Protection against Influenza A virus (A/California/07/2009 (H1NI)) harboring NA H275Y mutant infected in Balb/c mouse at 8.4 uM/kg, IV administered once daily for 7 days starting from 24 hrs post to viral infection; assay type: functional

| SMILES | IC50 [1] | IC50 [2] | EC50 (Influenza A virus [3]) | EC50 (Influenza A virus [4]; read-out: EC50) | EC50 (Influenza A virus [4]) | Activity (Influenza A virus [5]; A/California/07/2009(H1N1), time 7.0 day) | Activity (Influenza A virus [6]; A/Puerto Rico/8/1934(H1N1), time 7.0 day) | Activity (Influenza A virus [5]; time 7 day, at 4.2 to 8.4 µmol/kg) | Activity (Influenza A virus [6]; time 7 day, at 8.4 µmol/kg) |
| --- | --- | --- | --- | --- | --- | --- | --- | --- | --- |
| CC(=O)N[C@H]1[C@H]([C@H](OC(=O)NCCOCCOCCOCCOCCOCCOCCOCCOCCOCCOCCOCCOCc2cn(CCCCCCO[C@H]3CC[C@@]4(C)C(=CC[C@H]5[C@@H]6CC[C@H]([C@H](C)CCCC(C)C)[C@@]6(C)CC[C@@H]54)C3)nn2)[C@H](O)CO)OC(C(=O)O)=C[C@@H]1NC(=N)N | 573 nM | 8580 nM | 2600 nM | 8.26 µM |  |  |  |  |  |
| CC(=O)N[C@H]1[C@H]([C@H](O)[C@H](O)CO)OC(C(=O)O)=C[C@@H]1NC(=N)N [ZANAMIVIR] | 1 nM | 10 nM | 26.6 nM |  | 5.24 µM |  |  |  |  |
| CCC(CC)O[C@@H]1C=C(C(=O)O)C[C@H](N)[C@H]1NC(C)=O [OSELTAMIVIR CARBOXYLATE] | 938 nM | 22.4 nM | 2610 nM | 30.2 µM |  | inactive | inactive |  |  |
| CC(=O)N[C@H]1[C@H]([C@H](OC(=O)NCCOCCOCCOCCOCCOCCOCc2cn(CCCCCCO[C@H]3CC[C@@]4(C)C(=CC[C@H]5[C@@H]6CC[C@H]([C@H](C)CCCC(C)C)[C@@]6(C)CC[C@@H]54)C3)nn2)[C@H](O)CO)OC(C(=O)O)=C[C@@H]1NC(=N)N | 22 nM | 162 nM | 22 nM | 0.422 µM |  |  |  | 100% | 100% |
| CC(=O)N[C@H]1[C@H]([C@H](OC(=O)NCCOCCOCCOCc2cn(CCCCCCO[C@H]3CC[C@@]4(C)C(=CC[C@H]5[C@@H]6CC[C@H]([C@H](C)CCCC(C)C)[C@@]6(C)CC[C@@H]54)C3)nn2)[C@H](O)CO)OC(C(=O)O)=C[C@@H]1NC(=N)N | 127 nM | 773 nM | 653 nM | 4.81 µM |  |  |  |  |  |
| CCCCCCn1cc(COCCOCCOCCOCCOCCOCCNC(=O)O[C@@H]([C@@H]2OC(C(=O)O)=C[C@H](NC(=N)N)[C@H]2NC(C)=O)[C@H](O)CO)nn1 | 30.3 nM | 296 nM | 612 nM | 4.73 µM |  |  |  |  |  |
